This is an account of results in patent publication US9475817B2 (BRISTOL-MYERS SQUIBB COMPANY, priority 2012, dated 2016).

In one test the target is CK1ε (Homo sapiens (Human), UniProt P49674). Put plainly: CK1ε kinase assay (Caliper LabChip, fluoresceinated peptide substrate). The format is biochemical. The following applies: 200 pM CK1ε, 50 μM ATP, 1.5 μM peptide substrate, 22 hours room temperature. As for the experimental part: (§1) CK1ε and CK1δ Kinase Assays
(§2) The kinase assay was performed in V-bottom 384-well plates. […] The reaction was incubated at room temperature for 22 hours and terminated by adding 45 μl of 35 mM EDTA to each sample. […] Compounds were dissolved at 10 mM in dimethylsulfoxide (DMSO) and evaluated at eleven concentrations. IC50 values were derived by non-linear regression analysis.

A further test deals with CK1δ (Homo sapiens (Human), UniProt P48730). Put plainly: CK1δ kinase assay (Caliper LabChip, fluoresceinated peptide substrate). It counts as biochemical. The following applies: 200 pM CK1δ, 50 μM ATP, 1.5 μM peptide substrate, 22 hours room temperature. As for the experimental part: as §1, §2
Sequence of CK1δ (P48730 whole entry): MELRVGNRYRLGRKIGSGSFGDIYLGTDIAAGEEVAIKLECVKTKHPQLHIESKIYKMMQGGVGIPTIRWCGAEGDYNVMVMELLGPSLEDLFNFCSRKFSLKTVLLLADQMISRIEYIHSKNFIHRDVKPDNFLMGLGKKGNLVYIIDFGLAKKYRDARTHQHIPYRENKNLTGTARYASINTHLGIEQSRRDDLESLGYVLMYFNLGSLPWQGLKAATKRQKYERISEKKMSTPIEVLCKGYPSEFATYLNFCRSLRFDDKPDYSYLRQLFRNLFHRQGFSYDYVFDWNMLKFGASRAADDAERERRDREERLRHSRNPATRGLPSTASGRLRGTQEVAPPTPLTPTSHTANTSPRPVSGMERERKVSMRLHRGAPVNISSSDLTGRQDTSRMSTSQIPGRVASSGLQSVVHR

Structures are written as SMILES.

As a reminder, the IC50 is the concentration at which inhibition is half-maximal. High values mean weaker potency in that assay, low ones greater potency in that assay.

Sequence of CK1ε (P49674 whole entry): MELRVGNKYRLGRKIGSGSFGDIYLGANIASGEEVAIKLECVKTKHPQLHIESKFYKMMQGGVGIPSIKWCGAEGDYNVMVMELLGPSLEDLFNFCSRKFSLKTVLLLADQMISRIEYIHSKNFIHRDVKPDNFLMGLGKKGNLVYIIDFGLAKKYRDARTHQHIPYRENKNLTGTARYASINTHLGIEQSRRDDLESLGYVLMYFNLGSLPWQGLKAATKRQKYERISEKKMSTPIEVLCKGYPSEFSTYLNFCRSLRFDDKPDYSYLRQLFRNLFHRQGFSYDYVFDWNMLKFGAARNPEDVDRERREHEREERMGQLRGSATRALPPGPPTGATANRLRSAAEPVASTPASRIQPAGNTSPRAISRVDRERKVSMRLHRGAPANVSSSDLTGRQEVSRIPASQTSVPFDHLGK

For the molecule `Cn1cc(-c2ccc3nc(NC(=O)c4ccc(-n5cccn5)nc4)cn3n2)c(-c2ccc(F)cc2)n1` [Compound 71, N-(6-(3-(4-fluorophenyl)-1-methyl-1H-pyrazol-4-yl)imidazo[1,2-b]pyridazin-2-yl)-6-(1H-pyrazol-1-yl)nicotinamide], the concentration for half-maximal inhibition (IC50) at CK1ε worked out at 17.3 nM; against CK1δ it was 3.8 nM.
`Cc1nc(-c2cccnc2)sc1C(=O)Nc1cn2nc(-c3c(-c4ccc(F)cc4)nn(C)c3C3CCN(Cc4ccon4)CC3)ccc2n1` [Compound 176, N-(6-(3-(4-fluorophenyl)-5-(1-(isoxazol-3-ylmethyl)piperidin-4-yl)-1-methyl-1H-pyrazol-4-yl)imidazo[1,2-b]pyridazin-2-yl)-4-methyl-2-(pyridin-3-yl)thiazole-5-carboxamide]: the results for the IC50 at CK1ε and against CK1δ were 0.4 nM and 1 nM, respectively.
Turning to `Cn1cc(-c2ccc3nc(NC(=O)c4ncccc4Cl)cn3n2)c(-c2ccc(F)cc2)n1` [Compound 36, 3-chloro-N-(6-(3-(4-fluorophenyl)-1-methyl-1H-pyrazol-4-yl)imidazo[1,2-b]pyridazin-2-yl)picolinamide], the half-maximal inhibitory concentration (IC50) against CK1ε amounted to 13.7 nM; against CK1δ it was 7.3 nM.
As to `Cn1nc(-c2ccc(F)cc2)c(-c2ccc3nc(NC(=O)c4ccnc(N)c4)cn3n2)c1N1CCNCC1` [Compound 140, 2-Amino-N-(6-(3-(4-fluorophenyl)-1-methyl-5-(piperazin-1-yl)-1H-pyrazol-4-yl)imidazo[1,2-b]pyridazin-2-yl)isonicotinamide], the IC50 on CK1ε was 2.4 nM; against CK1δ, 2.5 nM.
`Cc1nc(-c2ccccn2)sc1C(=O)Nc1cn2nc(-c3cn(C)nc3-c3ccc(F)cc3)ccc2n1` [Compound 6, N-(6-(3-(4-fluorophenyl)-1-methyl-1H-pyrazol-4-yl)imidazo[1,2-b]pyridazin-2-yl)-4-methyl-2-(pyridin-2-yl)thiazol-5-carboxamide]: the IC50 against CK1ε was 17.3 nM; against CK1δ, 4.3 nM.
On the same counts, the results for `Cn1cc(-c2ccc3nc(NC(=O)c4cc(-c5ccc(F)cc5)ncn4)cn3n2)c(-c2ccc(F)cc2)n1` [Compound 33, 6-(4-fluorophenyl)-N-(6-(3-(4-fluorophenyl)-1-methyl-1H-pyrazol-4-yl)imidazo[1,2-b]pyridazin-2-yl)pyrimidine-4-carboxamide] are 454 nM and 30.4 nM.
In the case of `Cn1nc(-c2ccc(F)cc2)c(-c2ccc3nc(NC(=O)c4ccnc(F)c4)cn3n2)c1N1CCOCC1` [Compound 143, 2-Fluoro-N-(6-(3-(4-fluorophenyl)-1-methyl-5-morpholino-1H-pyrazol-4-yl)imidazo[1,2-b]pyridazin-2-yl)isonicotinamide], at CK1δ, half-maximal inhibition (IC50) was put at 2 nM.
Take `Cn1cc(-c2ccc3nc(NC(=O)c4cc(F)cc(F)c4)cn3n2)c(-c2ccc(F)cc2)n1` [Compound 43, 3,5-difluoro-N-(6-(3-(4-fluorophenyl)-1-methyl-1H-pyrazol-4-yl)imidazo[1,2-b]pyridazin-2-yl)benzamide]: the concentration for half-maximal inhibition (IC50) against CK1ε worked out at 15.8 nM; on CK1δ, 4.8 nM.
For `Cc1ncccc1C(=O)Nc1cn2nc(-c3cn(C)nc3-c3ccc(F)cc3)ccc2n1` [Compound 78, N-(6-(3-(4-fluorophenyl)-1-methyl-1H-pyrazol-4-yl)imidazo[1,2-b]pyridazin-2-yl)-2-methylnicotinamide], the values for the half-inhibitory concentration (IC50) at CK1ε and at CK1δ were 11 nM and 3.3 nM, respectively.
Turning to `Cn1cc(-c2ccc3nc(NC(=O)c4cccc(F)c4)cn3n2)c(-c2ccc(F)cc2)n1` [Compound 23, 3-fluoro-N-(6-(3-(4-fluorophenyl)-1-methyl-1H-pyrazol-4-yl)imidazo[1,2-b]pyridazin-2-yl)benzamide], the 50% inhibitory concentration (IC50) against CK1ε worked out at 8.6 nM; against CK1δ, 2.6 nM.
For `Cc1nc(-c2ccncc2)sc1C(=O)Nc1cn2nc(-c3c(-c4ccc(F)cc4)nn(C)c3C3CCN(Cc4ccon4)CC3)ccc2n1` [Compound 182, N-(6-(3-(4-fluorophenyl)-5-(1-(isoxazol-3-ylmethyl)piperidin-4-yl)-1-methyl-1H-pyrazol-4-yl)imidazo [1,2-b]pyridazin-2-yl)-4-methyl-2-(pyridin-4-yl)thiazole-5-carboxamide], in that order: 0.9 nM and 1.7 nM.
As to `Cn1nc(-c2ccc(F)cc2)c(-c2ccc3nc(NC(=O)c4ccnc(F)c4)cn3n2)c1C1CCN(C[C@@H](O)C(F)(F)F)CC1` [Compound 158, (R)-2-Fluoro-N-(6-(3-(4-fluorophenyl)-1-methyl-5-(1-(3,3,3-trifluoro-2-hydroxypropyl)piperidin-4-yl)-1H-pyrazol-4-yl)imidazo[1,2-b]pyridazin-2-yl)isonicotinamide], the concentration for half-maximal inhibition (IC50) on CK1ε stood at 0.3 nM; against CK1δ, 0.2 nM.
Regarding `Cn1nc(-c2ccc(F)cc2)c(-c2ccc3nc(NC(=O)c4ccnc(N5CCOCC5)c4)cn3n2)c1C1CCNCC1` [Compound 160, N-(6-(3-(4-Fluorophenyl)-1-methyl-5-(piperidin-4-yl)-1H-pyrazol-4-yl)imidazo[1,2-b]pyridazin-2-yl)-2-morpholinoisonicotinamide], the IC50 came to 1 nM against CK1ε and 1.5 nM at CK1δ.
As for `Cn1cc(-c2ccc3nc(NC(=O)C45CC6CC(CC(C6)C4)C5)cn3n2)c(-c2ccc(F)cc2)n1` [Compound 93, (3,5,7)-N-(6-(3-(4-fluorophenyl)-1-methyl-1H-pyrazol-4-yl)imidazo[1,2-b]pyridazin-2-yl)adamantane-1-carboxamide], the figures for the half-maximal inhibitory concentration (IC50) at CK1ε and at CK1δ were 6 nM and 4.1 nM, respectively.
Consider `Cc1nc(-c2cccnc2)sc1C(=O)Nc1cn2nc(-c3c(-c4ccc(F)cc4)nn(C)c3C3CCOCC3)ccc2n1` [Compound 201, N-(6-(3-(4-Fluorophenyl)-1-methyl-5-(tetrahydro-2H-pyran-4-yl)-1H-pyrazol-4-yl)imidazo[1,2-b]pyridazin-2-yl)-4-methyl-2-(pyridin-3-yl)thiazole-5-carboxamide], for which the IC50 against CK1ε was found to be 2.3 nM; against CK1δ, 0.3 nM.
Take `COc1cc(C(=O)Nc2cn3nc(-c4c(-c5ccc(F)cc5)nn(C)c4N4CCNCC4)ccc3n2)ccn1` [Compound 118, N-(6-(3-(4-Fluorophenyl)-1-methyl-5-(piperazin-1-yl)-1H-pyrazol-4-yl)imidazo[1,2-b]pyridazin-2-yl)-2-methoxyisonicotinamide]: the IC50 is 3.6 nM against CK1ε and 0.8 nM against CK1δ.
Regarding `Cc1nc(-c2cccnc2)sc1C(=O)Nc1cn2nc(-c3c(-c4ccc(F)cc4)nn(C)c3C3CCN(CC(N)=O)CC3)ccc2n1` [Compound 178, N-(6-(5-(1-(2-Amino-2-oxoethyl)piperidin-4-yl)-3-(4-fluorophenyl)-1-methyl-1H-pyrazol-4-yl)imidazo[1,2-b]pyridazin-2-yl)-4-methyl-2-(pyridin-3-yl)thiazole-5-carboxamide], the concentration for half-maximal inhibition (IC50) on CK1ε was 1.3 nM; at CK1δ, 0.2 nM.
On CK1δ, `Cn1cc(C(=O)Nc2cn3nc(-c4cn(C)nc4-c4ccc(F)cc4)ccc3n2)cn1` [Compound 98, N-(6-(3-(4-fluorophenyl)-1-methyl-1H-pyrazol-4-yl)imidazo[1,2-b]pyridazin-2-yl)-1-methyl-1H-pyrazole-4-carboxamide] had an IC50 of 2.6 nM.
Take `Cn1cc(-c2ccc3nc(NC(=O)c4ccnc(C(C)(C)C)c4)cn3n2)c(-c2ccc(F)cc2)n1` [Compound 50, 2-(tert-butyl)-N-(6-(3-(4-fluorophenyl)-1-methyl-1H-pyrazol-4-yl)imidazo[1,2-b]pyridazin-2-yl)isonicotinamide]: on CK1ε, the 50% inhibitory concentration (IC50) was 99.9 nM.
At CK1δ, `COc1ncccc1C(=O)Nc1cn2nc(-c3cn(C)nc3-c3ccc(F)cc3)ccc2n1` [Compound 77, N-(6-(3-(4-fluorophenyl)-1-methyl-1H-pyrazol-4-yl)imidazo[1,2-b]pyridazin-2-yl)-2-methoxynicotinamide] gave a 50% inhibitory concentration (IC50) of 10.6 nM.
In the case of `Cn1cc(-c2ccc3nc(NC(=O)c4cncc(Cl)c4)cn3n2)c(-c2ccc(F)cc2)n1` [Compound 46, 5-chloro-N-(6-(3-(4-fluorophenyl)-1-methyl-1H-pyrazol-4-yl)imidazo[1,2-b]pyridazin-2-yl)nicotinamide], at CK1δ, the IC50 came out at 4.1 nM.
As for `COc1cc(C(=O)Nc2cn3nc(-c4cn(C)nc4-c4ccc(F)cc4)ccc3n2)nc(OC)n1` [Compound 39, N-(6-(3-(4-fluorophenyl)-1-methyl-1H-pyrazol-4-yl)imidazo[1,2-b]pyridazin-2-yl)-2,6-dimethoxypyrimidine-4-carboxamide], the IC50 on CK1ε amounted to 75.7 nM.
Regarding `Cn1cc(-c2ccc3nc(NC(=O)C4CCCCC4)cn3n2)c(-c2ccc(F)cc2)n1` [Compound 87, N-(6-(3-(4-fluorophenyl)-1-methyl-1H-pyrazol-4-yl)imidazo[1,2-b]pyridazin-2-yl)cyclohexanecarboxamide], the 50% inhibitory concentration (IC50) on CK1ε is 11.3 nM.
`Cn1nc(-c2ccc(F)cc2)c(-c2ccc3nc(NC(=O)c4ccnc(F)c4)cn3n2)c1N1CCN(C(=O)C2CC2)CC1` [Compound 122, N-(6-(5-(4-(Cyclopropanecarbonyl)piperazin-1-yl)-3-(4-fluorophenyl)-1-methyl-1H-pyrazol-4-yl)imidazo[1,2-b]pyridazin-2-yl)-2-fluoroisonicotinamide] showed a concentration for half-maximal inhibition (IC50) against CK1δ of 0.5 nM.
Molecule `Cn1nc(-c2ccc(F)cc2)c(-c2ccc3nc(NC(=O)c4ccncc4)cn3n2)c1C1CCN(Cc2cscn2)CC1` [Compound 171, N-(6-(3-(4-fluorophenyl)-1-methyl-5-(1-(thiazol-4-ylmethyl)piperidin-4-yl)-1H-pyrazol-4-yl)imidazo[1,2-b]pyridazin-2-yl) isonicotinamide] registered an IC50 at CK1δ of 3.6 nM.
Take `CN1CCC(C(=O)Nc2cn3nc(-c4cn(C)nc4-c4ccc(F)cc4)ccc3n2)CC1` [Compound 90, N-(6-(3-(4-fluorophenyl)-1-methyl-1H-pyrazol-4-yl)imidazo[1,2-b]pyridazin-2-yl)-1-methylpiepridine-4-carboxamide]: half-maximal inhibition against CK1ε (IC50) was put at 135 nM.
